What all share (type): functional, cell-based
For one experiment, the system named is Jurkat. The experiment is described as follows: Antiproliferative activity against human Jurkat cells assessed as cell viability after 72 hrs by MTT assay. In general terms: Tetrazolium assays rely on reduction of a dye to a coloured formazan, in cell work by metabolically active cells.
A further experiment relates to CCRF-CEM. The experiment in a line: Antiproliferative activity against human CCRF-CEM cells assessed as cell viability after 72 hrs by MTT assay.
In the next experiment the test system is MCF7. The experiment in a line: Antiproliferative activity against human MCF7 cells assessed as cell viability after 72 hrs by MTT assay. The following applies: MCF7, 72 h.
The subject of the next experiment is A549. The experiment in a line: Antiproliferative activity against human A549 cells assessed as cell viability after 72 hrs by MTT assay. The following applies: A549, 72 h.
The subject of the next experiment is HeLa. The experiment is described as follows: Antiproliferative activity against human HeLa cells assessed as cell viability after 72 hrs by MTT assay.
The next experiment deals with MDA-MB-231. The experiment is described as follows: Antiproliferative activity against human MDA-MB-231 cells assessed as cell viability after 72 hrs by MTT assay. To be noted: MDA-MB-231, 72 h.

As usually defined, the IC50 is the concentration that inhibits the measured activity by half.

With `c1ccc2c3c([nH]c2c1)SC(N1CCOCC1)=NC3`, the IC50 in the experiment on Jurkat was 8.7 µM; in the experiment with CCRF-CEM, 5.9 µM; with MCF7 it was 55.1 µM; in the experiment on A549, 62.9 µM; in the experiment on HeLa, 72.5 µM; in the experiment on MDA-MB-231, 33.1 µM.

In the case of `CN(C1=NCc2c([nH]c3ccccc23)S1)c1ccccc1`, the IC50 in the experiment on Jurkat amounted to 75.5 µM; in the experiment on CCRF-CEM it was 28 µM; in the experiment with MCF7, 95 µM; in the experiment on A549 it was 91.5 µM; in the experiment with HeLa, 71.7 µM; with MDA-MB-231 it was 42.4 µM.

Turning to `CNC1=NCc2c([nH]c3ccccc23)S1`, the IC50 was determined as 5.2 µM in the experiment on Jurkat; 4.7 µM in the experiment with CCRF-CEM; 43.2 µM in the experiment with MCF7; 43.4 µM in the experiment on A549; 67.2 µM in the experiment on HeLa; 34.3 µM with MDA-MB-231.

In the case of `c1ccc2c3c([nH]c2c1)SC(NC1CCCCC1)=NC3`, the IC50 in the experiment on Jurkat was found to be 5.2 µM; with CCRF-CEM it was 3.9 µM; in the experiment on MCF7, 64.3 µM; in the experiment on A549, 55.3 µM; in the experiment on HeLa, 65 µM; in the experiment on MDA-MB-231, 30.9 µM.

As to `c1ccc2c3c([nH]c2c1)SC(N1CCCCC1)=NC3`, the IC50 with Jurkat was 7.3 µM; in the experiment on CCRF-CEM, 6.6 µM; in the experiment on MCF7, 37.1 µM; in the experiment on A549, 42.2 µM; with HeLa, 40.7 µM; in the experiment on MDA-MB-231 it was 35.5 µM.

Take `CSC(=S)NCc1cn(C(=O)OC(C)(C)C)c2ccccc12`: the IC50 in the experiment with Jurkat was found to be 17.8 µM; with CCRF-CEM, 19.6 µM; with MCF7 it was 23 µM; with A549, 21.4 µM; with HeLa it was 16.9 µM; in the experiment with MDA-MB-231, 21.4 µM.

Consider `CC(C)(C)OC(=O)n1cc(CNC(=S)Nc2ccccc2)c2ccccc21`, for which the IC50 was determined as 3.1 µM in the experiment on Jurkat; 90.7 µM with CCRF-CEM; 0.72 µM in the experiment with MCF7; 6.6 µM in the experiment on A549; 20.4 µM in the experiment on HeLa; 28 µM in the experiment on MDA-MB-231.

On to `CC(C)(C)OC(=O)n1cc(CNC(=S)Nc2ccc(Br)cc2)c2ccccc21`, for which the IC50 with Jurkat stood at 4.3 µM; with CCRF-CEM it was 3.8 µM; in the experiment on MCF7, 8.5 µM; with A549, 6.8 µM; with HeLa, 4.5 µM; in the experiment with MDA-MB-231, 13 µM.

In the case of `CC(C)(C)OC(=O)n1cc(CNC(=S)Nc2ccc(F)cc2)c2ccccc21`, the IC50 in the experiment on Jurkat was found to be 19.8 µM; with CCRF-CEM, 12 µM; with MCF7, 27.6 µM; with A549, 24.3 µM; with HeLa, 10.7 µM; in the experiment with MDA-MB-231, 22.2 µM.

On to `CC(C)(C)OC(=O)n1cc(CNC(=S)Nc2ccc(Cl)cc2)c2ccccc21`, for which the IC50 in the experiment with Jurkat was 4.2 µM; in the experiment on CCRF-CEM it was 3.8 µM; with MCF7, 8.6 µM; in the experiment on A549, 7.6 µM; in the experiment on HeLa, 4 µM; with MDA-MB-231, 17.1 µM.

On to `COc1ccc(NC(=S)NCc2cn(C(=O)OC(C)(C)C)c3ccccc23)cc1`, for which the half-inhibitory concentration (IC50) in the experiment on Jurkat was 30 µM; in the experiment on CCRF-CEM, 22 µM; with MCF7, 92 µM; in the experiment with A549, more than 100 µM; in the experiment on HeLa, 34 µM; in the experiment on MDA-MB-231, more than 100 µM.

Consider `Cc1ccc(NC(=S)NCc2cn(C(=O)OC(C)(C)C)c3ccccc23)cc1`, for which the IC50 with Jurkat was determined as 20 µM; in the experiment with CCRF-CEM, 16 µM; in the experiment with MCF7 it was 30 µM; in the experiment with A549, 31.3 µM; in the experiment with HeLa it was 29 µM; in the experiment with MDA-MB-231, 37.4 µM.

With `CC(C)(C)OC(=O)n1cc(CNC(=S)Nc2ccc([N+](=O)[O-])cc2)c2ccccc21`, the IC50 in the experiment on Jurkat was 3 µM; with CCRF-CEM, 3.8 µM; in the experiment on MCF7, 9.3 µM; in the experiment with A549 it was 11.5 µM; in the experiment with HeLa it was 14 µM; with MDA-MB-231, 8.6 µM.

For the compound `CC(C)(C)OC(=O)n1cc(CNC(=S)Nc2ccc(C(F)(F)F)cc2)c2ccccc21`, the IC50 with Jurkat is 3 µM; with CCRF-CEM it was 3.5 µM; with MCF7 it was 3.5 µM; with A549 it was 4 µM; in the experiment with HeLa, 4 µM; with MDA-MB-231, 4.5 µM.

For `CC(C)(C)OC(=O)n1cc(CNC(=S)Nc2cc(C(F)(F)F)cc(C(F)(F)F)c2)c2ccccc21`, the IC50 was determined as 3.6 µM in the experiment on Jurkat; 2.9 µM in the experiment on CCRF-CEM; 3.5 µM with MCF7; 3.6 µM with A549; 6.6 µM with HeLa; 4.1 µM in the experiment with MDA-MB-231.

For the compound `CN(C(=S)NCc1cn(C(=O)OC(C)(C)C)c2ccccc12)c1ccccc1`, the IC50 in the experiment with Jurkat, in the experiment with CCRF-CEM, in the experiment on MCF7, in the experiment on A549, in the experiment with HeLa and in the experiment with MDA-MB-231 was more than 100 µM in each case.

`CNC(=S)NCc1cn(C(=O)OC(C)(C)C)c2ccccc12`: the IC50 in the experiment with Jurkat, in the experiment with CCRF-CEM, in the experiment on MCF7, in the experiment with A549, in the experiment with HeLa and in the experiment on MDA-MB-231 was more than 100 µM throughout.

As to `CC(C)(C)OC(=O)n1cc(CNC(=S)NC2CCCCC2)c2ccccc21`, the IC50 turned out to be 11 µM in the experiment on Jurkat; 7 µM with CCRF-CEM; 21.5 µM in the experiment with MCF7; 33.5 µM in the experiment with A549; 8 µM in the experiment on HeLa; 37.5 µM in the experiment with MDA-MB-231.

`CC(C)(C)OC(=O)n1cc(CNC(=S)N2CCCCC2)c2ccccc21`: the IC50 is 37.6 µM with Jurkat; 37 µM in the experiment with CCRF-CEM; more than 100 µM with MCF7; 60.1 µM in the experiment on A549; 36.8 µM in the experiment on HeLa; more than 100 µM in the experiment with MDA-MB-231.

Regarding `CC(C)(C)OC(=O)n1cc(CNC(=S)N2CCOCC2)c2ccccc21`, the IC50 in the experiment with Jurkat is 95.8 µM; with CCRF-CEM it was more than 100 µM; in the experiment with MCF7, more than 100 µM; with A549, more than 100 µM; in the experiment with HeLa, 80 µM; in the experiment with MDA-MB-231, more than 100 µM.

In the case of `CO[C@H]1N(C(=O)OC(C)(C)C)c2ccccc2[C@@]12CN=C(N(C)c1ccccc1)S2` (racemic), the IC50 in the experiment with Jurkat amounted to 5.9 µM; in the experiment with CCRF-CEM it was 18.3 µM; with MCF7, 1.5 µM; in the experiment on HeLa, 8.2 µM; in the experiment with MDA-MB-231, 31.7 µM.

For the compound `CO[C@@H]1N(C(=O)OC(C)(C)C)c2ccccc2[C@@]12CN=C(NC1CCCCC1)S2` (racemic), the IC50 with Jurkat stood at 27 µM; in the experiment with CCRF-CEM it was 29.1 µM; with MCF7, 37.2 µM; in the experiment on A549, 38 µM; with HeLa, 36.7 µM; in the experiment on MDA-MB-231, 41.4 µM.

Consider `CO[C@H]1N(C(=O)OC(C)(C)C)c2ccccc2[C@@]12CN=C(N1CCCCC1)S2` (racemic), for which the IC50 in the experiment on Jurkat is 24.9 µM; in the experiment with CCRF-CEM, 26.1 µM; in the experiment on MCF7, 52.6 µM; in the experiment on A549 it was 54.2 µM; in the experiment on HeLa, 54.9 µM; with MDA-MB-231, 61.3 µM.

As to `CO[C@@H]1N(C(=O)OC(C)(C)C)c2ccccc2[C@@]12CN=C(N1CCCCC1)S2` (racemic), the IC50 came to 33.1 µM with Jurkat; 30.7 µM in the experiment on CCRF-CEM; 64.4 µM in the experiment with MCF7; 55.4 µM in the experiment with A549; 62.3 µM in the experiment on HeLa; 69 µM in the experiment on MDA-MB-231.

With `CO[C@H]1N(C(=O)OC(C)(C)C)c2ccccc2[C@@]12CN=C(N1CCOCC1)S2` (racemic), the IC50 in the experiment on Jurkat is 31.3 µM; with CCRF-CEM, 51.4 µM; with MCF7, 70.1 µM; in the experiment with A549, more than 100 µM; in the experiment on HeLa it was 55.5 µM; with MDA-MB-231 it was 69.3 µM.

With `CO[C@@H]1N(C(=O)OC(C)(C)C)c2ccccc2[C@@]12CN=C(N1CCOCC1)S2` (racemic), the IC50 with Jurkat was 34.5 µM; in the experiment on CCRF-CEM it was 35.9 µM; in the experiment with MCF7, 69.5 µM; with A549, more than 100 µM; in the experiment on HeLa it was 76 µM; with MDA-MB-231, more than 100 µM.

With `CON1c2ccccc2C2(CN=C(SC)S2)C1O` (racemic), the IC50 in the experiment with Jurkat, in the experiment on CCRF-CEM, in the experiment with MCF7, with A549, with HeLa and in the experiment with MDA-MB-231 was 100 µM throughout.

For the compound `CSC1=NC[C@]2(S1)c1ccccc1N(C(=O)OC(C)(C)C)[C@@H]2O` (racemic), the IC50 came out at 34 µM in the experiment on Jurkat; 30.6 µM in the experiment with CCRF-CEM; 100 µM in the experiment with MCF7; 100 µM with A549; 78 µM in the experiment on HeLa; 82.8 µM in the experiment with MDA-MB-231.

For the compound `CSC1=NC[C@]2(S1)c1ccccc1N(C(=O)OC(C)(C)C)[C@H]2O` (racemic), the IC50 in the experiment with Jurkat was found to be 29.8 µM; in the experiment with CCRF-CEM it was 27.1 µM; in the experiment on MCF7, 100 µM; in the experiment on A549, 100 µM; with HeLa it was 93.6 µM; in the experiment on MDA-MB-231, 95 µM.

Take `CC(C)(C)OC(=O)N1c2ccccc2[C@@]2(CN=C(Nc3ccccc3)S2)[C@H]1O` (racemic): the IC50 in the experiment with Jurkat turned out to be 47.7 µM; in the experiment on CCRF-CEM it was 33 µM; in the experiment with MCF7, 27.4 µM; in the experiment with A549 it was 74 µM; in the experiment with HeLa, 72.4 µM; with MDA-MB-231, 64 µM.

Consider `CN(C1=NC[C@]2(S1)c1ccccc1N(C(=O)OC(C)(C)C)[C@@H]2O)c1ccccc1` (racemic), for which the IC50 was 5.3 µM in the experiment on Jurkat; 64.3 µM with CCRF-CEM; 2.7 µM in the experiment with MCF7; more than 100 µM with A549; more than 100 µM with HeLa; more than 100 µM in the experiment with MDA-MB-231.

In the case of `CN(C1=NC[C@]2(S1)c1ccccc1N(C(=O)OC(C)(C)C)[C@H]2O)c1ccccc1` (racemic), the IC50 with Jurkat came out at 21.6 µM; in the experiment on CCRF-CEM, 22.8 µM; with MCF7, 30.3 µM; in the experiment on A549, 28.7 µM; in the experiment with HeLa, 22.3 µM; in the experiment with MDA-MB-231, 32.4 µM.

`CO[C@@H]1N(OC)c2ccccc2[C@@]12CN=C(SC)S2` (racemic): the IC50 came out at 44 µM in the experiment with Jurkat and 65 µM in the experiment with MCF7.

Values taken from ChEMBL document CHEMBL2440045, “The synthesis and anticancer activity of analogs of the indole phytoalexins brassinin, 1-methoxyspirobrassinol methyl ether and cyclobrassinin” (Bioorg Med Chem, 2013).
